Where two headings read alike, the source gives them in different places.
How the values were obtained:
[1] = test system: human non-small cell lung adenocarcinoma cells (NCI-H1975); assay: Proliferation inhibition of NCI-H1975 cells (SRB method, 7 days); assay type: cell-based; settings: 168 h, read-out: Inhibition rate (%)
[2] = mouse, in vivo
[3] = test system: human lung cancer NCI-H1975 transplanted tumor; assay: Human lung cancer NCI-H1975 transplanted tumor model of nude mice; settings: for Tumor volume (mm^3) D 1: D 1 (at grouping); for Tumor volume (mm^3) D 1 / Tumor weight / RTV (relative tumor volume) / Tumor volume (mm^3) D 22: x ± SE; for Tumor weight: D 22, after sacrifice; for T/C(%) (relative tumor growth rate): TRTV/CRTV; for RTV (relative tumor volume): Vt/V0; for Tumor volume (mm^3) D 22: intragastric q.d. 21 days, gefitinib 30, drug A 100(50), drug B 5 mg/kg
[4] = Body weight of nude mice in the NCI-H1975 transplanted tumor study; settings: x ± SE

| SMILES | inhibition at 0.005 µM ([1]; Drug B alone 5 nM) [%] | inhibition at 0.01 µM ([1]; Drug B alone 10 nM) [%] | Average body weight (g) D 1 [2] [g] | Tumor volume (mm^3) D 1 [3] [mm^3] | Tumor weight [3] [g] | T/C(%) (relative tumor growth rate) ([3]; D 22) | RTV (relative tumor volume) ([3]; D 22) | IR (%) (tumor inhibition percentage) ([3]; D 22, by tumor weight vs control) | Tumor volume (mm^3) D 22 ([3]; D 22) [mm^3] | Average body weight (g) D 1 ([4]; D 1, n=3) [g] | Average body weight (g) D 22 ([4]; D 22, intragastric q.d. 21 days, gefitinib 30, drug A 100(50), drug B 5 mg/kg) [g] |
| --- | --- | --- | --- | --- | --- | --- | --- | --- | --- | --- | --- |
| C=CC(=O)Nc1cc(Nc2nccc(-c3cn(C4CC4)c4ccccc34)n2)c(OC)cc1N(C)CCN(C)C [Drug B] | 50.3 | 53.8 | 22.8 ± 0.7 | 130 ± 44 | 0.1091 ± 0.0621 | 26.14 | 1.25±0.53 | 81.69 | 125±58 |  |  |
| COc1cc2ncnc(Nc3ccc(F)c(Cl)c3)c2cc1OCCCN1CCOCC1 [Gefitinib, gefitinib, reference compound] |  |  |  | 130 ± 41 | 0.4097 ± 0.1605 | 66.81 | 3.18±0.65 |  | 477±162 | 21.8 ± 0.6 | 24.5 ± 0.8 |
